Reference: patent US20250034136A1 (Nimbus Wadjet, Inc., priority 2023, published 2025)

What was measured:
[1] = target: WRN (BV08), human Werner helicase (Uniprot Q14191, amino acids 517-1235 with L1074F point mutation) (Homo sapiens (Human), UniProt Q14191, L1074F); assay: WRN (BV08) ADP-Glo assay; type: biochemical; conditions: class symbols A-E, read-out: ADP-Glo_hWRN_IC50
[2] = system: p21 induction in HCT116 cells; assay: p21 induction in HCT116 cells; type: cell-based; conditions: Homo sapiens, HCT-116, 24 h, HCT116 cells, 24 h compound incubation; read-out: P21_EC50
Summary of the method: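 HCT116 cells, 2,000/well, treated 24 h at 37 °C with 11-point compound dilutions in duplicate. Fixed, then immunostained for p21 and GAPDH and read by near-IR imaging at 800/700 nm. Normalized to DMSO (low) and reference WRN inhibitor (high) controls; EC50 from non-linear regression.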

WRN (BV08), human Werner helicase (Uniprot Q14191, amino acids 517-1235 with L1074F point mutation), sequence (Q14191 other isoform, or with tags, fused parts or gaps L1074F (already in the parent)): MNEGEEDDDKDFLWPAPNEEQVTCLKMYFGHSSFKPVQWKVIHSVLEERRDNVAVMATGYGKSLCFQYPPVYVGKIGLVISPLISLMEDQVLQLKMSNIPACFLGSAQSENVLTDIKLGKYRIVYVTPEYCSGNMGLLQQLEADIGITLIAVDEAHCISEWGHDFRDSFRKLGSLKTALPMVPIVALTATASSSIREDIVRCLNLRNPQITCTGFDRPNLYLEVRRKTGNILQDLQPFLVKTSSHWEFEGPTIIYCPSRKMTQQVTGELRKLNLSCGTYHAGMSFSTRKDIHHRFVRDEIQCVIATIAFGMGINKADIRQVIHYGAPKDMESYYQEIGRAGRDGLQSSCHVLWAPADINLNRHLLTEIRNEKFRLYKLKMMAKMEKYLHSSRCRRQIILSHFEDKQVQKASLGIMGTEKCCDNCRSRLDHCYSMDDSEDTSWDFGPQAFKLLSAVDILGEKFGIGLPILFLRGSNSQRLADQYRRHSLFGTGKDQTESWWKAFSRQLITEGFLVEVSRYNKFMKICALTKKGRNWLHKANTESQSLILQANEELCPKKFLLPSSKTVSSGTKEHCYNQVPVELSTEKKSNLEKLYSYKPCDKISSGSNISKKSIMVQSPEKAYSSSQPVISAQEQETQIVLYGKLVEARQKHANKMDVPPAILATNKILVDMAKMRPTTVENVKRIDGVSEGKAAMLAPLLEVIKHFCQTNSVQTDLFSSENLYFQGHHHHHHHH

Structure (SMILES) | IC50 [1] [nM] | EC50 [2] [nM]
CCc1c(N2CCN(C(=O)c3ncnc(C)c3O)C[C@@H]2CO)c(=O)c2nc(N(C)C)cnc2n1CC(=O)Nc1ccc(C(F)(F)F)cc1Cl [I-244, N-[2-chloro-4-(trifluoromethyl)phenyl]-2-[2-(dimethylamino)-6-ethyl-7-[(2R)-4-(5-hydroxy-6-methylpyrimidine-4-carbonyl)-2-(hydroxymethyl)piperazin-1-yl]-8-oxo-5H,8H-pyrido[2,3-b]pyrazin-5-yl]acetamide] | 5 to 50 | > 5000
CCc1c(N2CCN(C(=O)c3ncnc(C)c3O)[C@H]3CC[C@@H]32)c(=O)c2nc(N3CC(F)(F)C3)cnc2n1CC(=O)Nc1ccc(C(F)(F)F)cc1Cl [I-245, N-[2-chloro-4-(trifluoromethyl)phenyl]-2-[2-(3,3-difluoroazetidin-1-yl)-6-ethyl-7-[(1S,6S)-5-(5-hydroxy-6-methylpyrimidine-4-carbonyl)-2,5-diazabicyclo[4.2.0]octan-2-yl]-8-oxo-5H,8H-pyrido[2,3-b]pyrazin-5-yl]acetamide] | 5 to 50 | < 500
CCc1c(N2CCN(C(=O)c3ncnc(C)c3O)[C@H]3CC[C@@H]32)c(=O)c2nc(N3CC(C)(O)C3)cnc2n1CC(=O)Nc1ccc(C(F)(F)F)cc1Cl [I-246, N-[2-chloro-4-(trifluoromethyl)phenyl]-2-[6-ethyl-2-(3-hydroxy-3-methylazetidin-1-yl)-7-[(1S,6S)-5-(5-hydroxy-6-methylpyrimidine-4-carbonyl)-2,5-diazabicyclo[4.2.0]octan-2-yl]-8-oxo-5H,8H-pyrido[2,3-b]pyrazin-5-yl]acetamide] | 5 to 50 | 500 to 2000
CCc1c(N2CCN(C(=O)c3ncnc(C)c3O)CC2(C)C)c(=O)c2nc(N(C)C)cnc2n1CC(=O)Nc1ccc(C(F)(F)F)cc1Cl [I-249, N-[2-chloro-4-(trifluoromethyl)phenyl]-2-[2-(dimethylamino)-6-ethyl-7-[4-(5-hydroxy-6-methylpyrimidine-4-carbonyl)-2,2-dimethylpiperazin-1-yl]-8-oxo-5H,8H-pyrido[2,3-b]pyrazin-5-yl]acetamide] | 5 to 50 | < 500
CCc1c(N2CCN(C(=O)c3ncnc(C)c3O)[C@H]3CC[C@@H]32)c(=O)c2nc(N3CCOCC3)cnc2n1CC(=O)Nc1ccc(C(F)(F)F)cc1Cl [I-250, N-[2-chloro-4-(trifluoromethyl)phenyl]-2-{6-ethyl-7-[(1S,6S)-5-(5-hydroxy-6-methylpyrimidine-4-carbonyl)-2,5-diazabicyclo[4.2.0]octan-2-yl]-2-(morpholin-4-yl)-8-oxo-5H,8H-pyrido[2,3-b]pyrazin-5-yl}acetamide] | 5 to 50 | < 500
CCc1c(N2CCN(C(=O)c3ncnc(C)c3O)[C@H]3CC[C@@H]32)c(=O)c2nc(N3CCCC3=O)cnc2n1CC(=O)Nc1ccc(C(F)(F)F)cc1Cl [I-253, N-[2-chloro-4-(trifluoromethyl)phenyl]-2-{6-ethyl-7-[(1S,6S)-5-(5-hydroxy-6-methylpyrimidine-4-carbonyl)-2,5-diazabicyclo[4.2.0]octan-2-yl]-8-oxo-2-(2-oxopyrrolidin-1-yl)-5H,8H-pyrido[2,3-b]pyrazin-5-yl}acetamide] | 5 to 50 | < 500
CCc1c(N2CCN(C(=O)c3ncnc(C)c3O)CC2)c(=O)c2nc(C3(C#N)CC3)cnc2n1CC(=O)Nc1ccc(C(F)(F)F)cc1Cl [I-254, N-[2-chloro-4-(trifluoromethyl)phenyl]-2-[2-(1-cyanocyclopropyl)-6-ethyl-7-[4-(5-hydroxy-6-methylpyrimidine-4-carbonyl)piperazin-1-yl]-8-oxo-5H,8H-pyrido[2,3-b]pyrazin-5-yl]acetamide] | 5 to 50 | 500 to 2000
CCc1c(N2CCN(C(=O)c3ncnc(C)c3O)[C@H]3CC[C@@H]32)c(=O)c2nc(N(C)CCOC)cnc2n1CC(=O)Nc1ccc(C(F)(F)F)cc1Cl [I-255, N-[2-chloro-4-(trifluoromethyl)phenyl]-2-{6-ethyl-7-[(1S,6S)-5-(5-hydroxy-6-methylpyrimidine-4-carbonyl)-2,5-diazabicyclo[4.2.0]octan-2-yl]-2-[(2-methoxyethyl)(methyl)amino]-8-oxo-5H,8H-pyrido[2,3-b]pyrazin-5-yl}acetamide] | 5 to 50 | < 500
CCc1c(N2CC3CC2CN3C(=O)c2ncnc(C)c2O)c(=O)c2nc(N(C)C)cnc2n1CC(=O)Nc1ccc(C(F)(F)F)cc1Cl (stereo not shown) [I-258, N-[2-chloro-4-(trifluoromethyl)phenyl]-2-[2-(dimethylamino)-6-ethyl-7-[5-(5-hydroxy-6-methylpyrimidine-4-carbonyl)-2,5-diazabicyclo[2.2.1]heptan-2-yl]-8-oxo-5H,8H-pyrido[2,3-b]pyrazin-5-yl]acetamide] | 100 to 500 | > 5000
CCc1c(N2CCN(C(=O)c3cc(C)cnc3OC)[C@H]3CC[C@@H]32)c(=O)c2nc(N(C)C)cnc2n1CC(=O)Nc1ccc(C(F)(F)F)cc1Cl [I-259, N-[2-chloro-4-(trifluoromethyl)phenyl]-2-[2-(dimethylamino)-6-ethyl-7-[(1S,6S)-5-(2-methoxy-5-methylpyridine-3-carbonyl)-2,5-diazabicyclo[4.2.0]octan-2-yl]-8-oxo-5H,8H-pyrido[2,3-b]pyrazin-5-yl]acetamide] | 5 to 50 | 500 to 2000
CCc1c(N2CCN(C(=O)c3c(OC)ncc(C)c3O)[C@H]3CC[C@@H]32)c(=O)c2nc(N(C)C)cnc2n1CC(=O)Nc1ccc(C(F)(F)F)cc1Cl [I-261, N-[2-chloro-4-(trifluoromethyl)phenyl]-2-[2-(dimethylamino)-6-ethyl-7-[(1S,6S)-5-(4-hydroxy-2-methoxy-5-methylpyridine-3-carbonyl)-2,5-diazabicyclo[4.2.0]octan-2-yl]-8-oxo-5H,8H-pyrido[2,3-b]pyrazin-5-yl]acetamide] | 5 to 50 | < 500
CCc1c(N2CCN(C(=O)c3ncnc(C)c3O)[C@H]3CC[C@@H]32)c(=O)c2nc(C)cnc2n1CC(=O)Nc1ccc(C(F)(F)F)cc1Cl [I-262, N-[2-chloro-4-(trifluoromethyl)phenyl]-2-{6-ethyl-7-[(1S,6S)-5-(5-hydroxy-6-methylpyrimidine-4-carbonyl)-2,5-diazabicyclo[4.2.0]octan-2-yl]-2-methyl-8-oxo-5H,8H-pyrido[2,3-b]pyrazin-5-yl}acetamide] | 5 to 50 | < 500
CCc1c(N2CCN(C(=O)c3ncnc(C)c3O)[C@H]3CC[C@@H]32)c(=O)c2nc(N3CCNCC3)cnc2n1CC(=O)Nc1ccc(C(F)(F)F)cc1Cl [I-263, N-[2-chloro-4-(trifluoromethyl)phenyl]-2-{6-ethyl-7-[(1S,6S)-5-(5-hydroxy-6-methylpyrimidine-4-carbonyl)-2,5-diazabicyclo[4.2.0]octan-2-yl]-8-oxo-2-(piperazin-1-yl)-5H,8H-pyrido[2,3-b]pyrazin-5-yl}acetamide] | 5 to 50 | > 5000
CCc1c(N2CCN(C(=O)c3ncnc(C)c3O)[C@H]3CC[C@@H]32)c(=O)c2nc(N(C)CCO)cnc2n1CC(=O)Nc1ccc(C(F)(F)F)cc1Cl [I-264, N-[2-chloro-4-(trifluoromethyl)phenyl]-2-{6-ethyl-7-[(1S,6S)-5-(5-hydroxy-6-methylpyrimidine-4-carbonyl)-2,5-diazabicyclo[4.2.0]octan-2-yl]-2-[(2-hydroxyethyl)(methyl)amino]-8-oxo-5H,8H-pyrido[2,3-b]pyrazin-5-yl}acetamide] | 5 to 50 | < 500
